Measurements reported in paper PMC8672774, “Discovery of cell active macrocyclic peptides with on-target inhibition of KRAS signaling” (Chemical Science, 2021).
Numbered stars: 1 amine (or outer) side, 2 acyl side, 3 side chain; on linkers, the order of the positions; unused ones are H or OH. Bridge positions count the residues as written; N and C are the ends. Square brackets hold non-standard residues; d marks the D form. Peptide text beside a SMILES is read from it. CH2 = C([*:1])[*:2]

Assays:
GDP-loaded KRAS^G12D = biological target: T1, GDP-loaded KRAS^G12D (Homo sapiens, UniProt P01116, G12D); experiment: TR-FRET competitive binding assay using KRAS G12D loaded with GDP; settings: competition with 500 nM FAM-labeled tracer; relative binding, EC50 right-shifted compared to KD
T1 construct: (AAs 1 to 169 plus a 4xGly motif appended to the N-; His-SUMO (N, cleaved yes); made in house; host or cells: E. coli Rosetta 2 (DE3)

[1] = system: pERK in KRAS^G12C, KRAS^G12V and KRAS^G12D cancer lines; experiment: Cellular phospho-ERK assay in panel of KRAS mutant cancer lines; assay type: cell-based
Protocol: For the latter, this included HEK293 cells (Fig. 4C), a cell line that has no dependency on RAS for cell proliferation.[21]
Ratio of pERK vs total ERK in
Penicillin/Streptomycin (Gibco 15140-122).
A375 cells were seeded at a
membranes were measured by LDH release assay.
according to manufacturer’s protocol.

[2] = system: AsPC-1, SK-CO-1, NCI-H358 and NCI-H2122 cells; experiment: CellTiter-Glo 2.0 cell viability assay, KRAS mutant lines; assay type: cell-based; settings: AsPC-1, SK-CO-1, NCI-H358, NCI-H2122; 120 h
Protocol: (§1) Prism software (GraphPad, San Diego, CA).
(§2) according to the manufacturer’s protoco l.
(§3) time of 0.15 second per well.
(§4) AMG510 was prepared internally from
(§5) Cells were cultured and seeded

A375 cells = experiment: CellTiter-Glo 2.0 cell viability assay, A375; assay type: cell-based; settings: 120 h
Protocol: as §1, §2, §3, §4, §5

[3] = system: extended cell panel incl. HEK293 cells; experiment: CellTiter-Glo cell viability assay (extended cell panel); assay type: cell-based
From the text: Table S2: Cell culture conditions and seeding densities for 5-day CellTiter- Glo® cell viability assay on extended 1 6 cell panel.
Cell Line Vendor Catalog Description Complete g rowth m e d i um Seeding density […]
Capan-1 ATCC HTB-79 pancreas, adenocarcinoma IMDM+20%FBS 7 00
CFPAC-1 ATCC CRL-19 18 pancreas, ductal adenocarcinoma; cystic fibrosis IMDM+10%FBS 6 00 […]
MiaPaCa-2 ATCC CRL-14 20 pancreas, pancreatic Carcinoma DMEM+10%FBS 6 00 NCI-H358 ATCC CRL-58 07 lung, non-small cell lung cancer,bronchioalveolar RPMI1640+10%FBS […]
Panc 10.05 ATCC CRL-25 47 pancreas, adenocarcinoma RPMI1640 + 20 Units/ml human […]
SK-CO-1 ATCC HTB-39 colon, colorectal adenocarcinoma EMEM+10%FBS 3 00 […]
SW4 80 ATCC CCL-22 8 colon, adenocarcinoma Leibovitz's L-15
Prism software (GraphPad, San Diego, CA). […]
according to the manufacturer’s protoco l. […]
as §3, §4
Cells were cultured and seeded […]
the manufacturer’s protocol. […]
integration time of 0.1 second per well. […]
indicated peptides the next day.

[4] = system: MAPK and PI3K signaling in A375 cells (BRAF^V600E); experiment: Western blot of MAPK and PI3K signaling in A375 cells; assay type: cell-based
[5] = system: MAPK and PI3K signaling in SK-MEL-28 cells (BRAF^V600E); experiment: Western blot of MAPK and PI3K signaling in SK-MEL-28 cells; assay type: cell-based
rat mast cells = experiment: Ex vivo rat mast cell degranulation and histamine release assay
EGF receptor activation = experiment: Western blot of EGF receptor activation in AsPC-1 cells; assay type: cell-based
[6] = system: TNFα-stimulated NFκB signaling; experiment: Western blot of TNFα-stimulated NFκB signaling in AsPC-1 cells; assay type: cell-based
[7] = system: pERK and pAKT in AsPC-1 cells; experiment: Western blot of KRAS signaling (pERK, pAKT) in AsPC-1 cells; assay type: cell-based; settings: 1 hour and 16 hour time-points
[8] = system: A375 and SK-MEL-28 cells vs AsPC-1 cells; experiment: Live-cell fluorescence imaging of FAM-labelled peptides; assay type: cell-based; settings: A375 and SK-MEL-28 compared to AsPC-1
[9] = system: pERK in NCI-H358 (heterozygous KRAS^G12C) cells; experiment: Cellular phospho-ERK assay in NCI-H358 cells with and without EGF; settings: 20 nM EGF stimulation

With `CC[C@H](C)[C@@H]1NC(=O)[C@H](Cc2ccc(O)cc2)NC(=O)[C@H](C)NC(=O)[C@@H]2CCCN2C(=O)[C@H](NC(=O)[C@H](CCCNC(=N)N)NC(=O)[C@H](CCCNC(=N)N)NC(C)=O)CSCSC[C@@H](C(=O)N[C@@H](CCCNC(=N)N)C(=O)N[C@@H](CCCNC(=N)N)C(N)=O)NC(=O)[C@H](C(C)C)NC(=O)[C@@H]2CCCN2C(=O)[C@H](CC(=O)O)NC(=O)[C@H](Cc2ccc(O)cc2)NC(=O)[C@H](CO)NC1=O` [Compound 6] (Ac-RR[dC]PAYISYDPVCRR-NH2; linker 3-13 via CH2) the EC50 (GDP-loaded KRAS^G12D) was > 48.1 µM.

With `CC[C@H](C)[C@@H]1NC(=O)[C@H](Cc2ccc(O)cc2)NC(=O)[C@H](CC(C)C)NC(=O)[C@@H]2CCCN2C(=O)[C@H](NC(=O)[C@@H](CCCNC(=N)N)NC(=O)[C@@H](CCCNC(=N)N)NC(=O)[C@@H](CCCNC(=N)N)NC(=O)[C@@H](CCCNC(=N)N)NC(=O)[C@H](CCCCN=[N+]=[N-])NC(C)=O)CSCSC[C@@H](C(=O)N[C@H](CCCNC(=N)N)C(=O)N[C@H](CCCNC(=N)N)C(=O)N[C@H](CCCNC(=N)N)C(=O)N[C@H](CCCNC(=N)N)C(N)=O)NC(=O)[C@H](C(C)C)NC(=O)[C@@H]2CCCN2C(=O)[C@H](CC(=O)O)NC(=O)[C@H](Cc2ccc(O)cc2)NC(=O)[C@](C)(CO)NC1=O` [MP-3995] the “pERK inhibition across KRAS mutant cancer lines” value [1] was “low micromolar range”, the “inhibition of cell proliferation in KRAS mutant lines” value [2] was “inhibitory effects on cell proliferation” and the “cell growth inhibition in A375” value (A375 cells) was “lack of cell growth inhibition”. For the same compound, the “sensitivity of HEK293 cell proliferation” value ([3]; HEK293, no dependency on RAS) was “insensitive” and the “number of KRAS mutant cell lines with inhibited proliferation” value ([3]; extended panel, 120 h) was 8 out of 13.

In the case of `CC[C@H](C)[C@@H]1NC(=O)[C@H](Cc2ccc(O)cc2)NC(=O)[C@H](CC(C)C)NC(=O)[C@@H]2CCCN2C(=O)[C@H](NC(=O)[C@@H](CCCNC(=N)N)NC(=O)[C@@H](CCCNC(=N)N)NC(=O)[C@@H](CCCNC(=N)N)NC(=O)[C@@H](CCCNC(=N)N)NC(=O)[C@H](CCCCN=[N+]=[N-])NC(C)=O)CSCSC[C@@H](C(=O)N[C@H](CCCNC(=N)N)C(=O)N[C@H](CCCNC(=N)N)C(=O)N[C@H](CCCNC(=N)N)C(=O)N[C@H](CCCNC(=N)N)C(N)=O)NC(=O)[C@H](C(C)C)NC(=O)[C@@H]2CCCN2C(=O)[C@H](CC(=O)O)NC(=O)[C@H](Cc2ccc(O)cc2)NC(=O)[C@H](CO)NC1=O` [MP-4090], the “inhibition of MAPK signaling in A375” value [4] is reported as “inactive”, the “inhibition of MAPK signaling in SK-MEL-28” value [5] is reported as “inactive” and the “activation of mast cell degranulation (histamine release), in words” value (rat mast cells; ex vivo, rat mast cells) is reported as “highly potent activators of MCD”. For the same compound, the “rMCD histamine release threshold” value (rat mast cells; lowest concentration at which histamine release was observed, rat peritoneal mast cells, 30 min) was ≥0.14 µM, the “effect on upstream EGF receptor activation” value (EGF receptor activation) was “no effect” and the “effect on TNFα-stimulated NFκB signaling” value [6] was “no effect”. For the same compound, the “inhibition of KRAS signaling (pERK, pAKT) by Western blot” value [7] was “display cell-based inhibition”.

With `CC[C@@H](C)[C@H]1NC(=O)[C@@H](Cc2ccc(O)cc2)NC(=O)[C@@H](CC(C)C)NC(=O)[C@H]2CCCN2C(=O)[C@H](NC(=O)[C@@H](CCCNC(=N)N)NC(=O)[C@@H](CCCNC(=N)N)NC(=O)[C@@H](CCCNC(=N)N)NC(=O)[C@@H](CCCNC(=N)N)NC(C)=O)CSCSC[C@H](C(=O)N[C@H](CCCNC(=N)N)C(=O)N[C@H](CCCNC(=N)N)C(=O)N[C@H](CCCNC(=N)N)C(=O)N[C@H](CCCNC(=N)N)C(N)=O)NC(=O)[C@@H](C(C)C)NC(=O)[C@H]2CCCN2C(=O)[C@@H](CC(=O)O)NC(=O)[C@@H](Cc2ccc(O)cc2)NC(=O)[C@@H](CO)NC1=O` [MP-4956, Ac-rrrr-cyclo(c(methylene)plyisydpvc)-rrrr-NH2] the “inhibition of cell proliferation in KRAS mutant lines” value [2] was “minimal inhibitory effects” and the “inhibition of KRAS signaling (pERK, pAKT) by Western blot” value [7] was “showed no activity”.

`CC[C@H](C)[C@@H]1NC(=O)[C@H](Cc2ccc(O)cc2)NC(=O)[C@H](CC(C)C)NC(=O)[C@@H]2CCCN2C(=O)[C@H](NC(=O)[C@@H](CCCNC(=N)N)NC(=O)[C@@H](CCCNC(=N)N)NC(=O)[C@@H](CCCNC(=N)N)NC(=O)[C@@H](CCCNC(=N)N)NC(=O)c2ccc3c(c2)C(=O)OC32c3ccc(O)cc3Oc3cc(O)ccc32)CSCSC[C@@H](C(=O)N[C@H](CCCNC(=N)N)C(=O)N[C@H](CCCNC(=N)N)C(=O)N[C@H](CCCNC(=N)N)C(=O)N[C@H](CCCNC(=N)N)C(N)=O)NC(=O)[C@H](C(C)C)NC(=O)[C@@H]2CCCN2C(=O)[C@H](CC(=O)O)NC(=O)[C@H](Cc2ccc(O)cc2)NC(=O)[C@H](CO)NC1=O` [MP-8996] was tested, and the “cell entry of FAM-labeled peptide in BRAF mutant cells” value [8] was “roughly equivalent amounts compared to AsPC-1 cells”.

`C=CC(=O)N1CCN(c2nc(OC[C@@H]3CCCN3C)nc3c2CCN(c2cccc4cccc(C)c24)C3)C[C@@H]1CC#N` [MRTX-1257] was tested, and the “potency shift in pERK in the presence of EGF, NCI-H358” value [9] was 2 fold.
